Patent US20120178738A1, “DIBENZO [B,F] [1,4]OXAZAPINE COMPOUNDS” (ARYX THERAPEUTICS, INC., priority 2007, published 2012)
Where two headings read alike, the source gives them in different places.

Legend:
[1] = target: T1, human D2s dopamine receptors (Homo sapiens, UniProt P14416); assay: hD2S receptor radioligand binding ([3H]spiperone); details: for Ki: pKi reported on a scale of 1 through 5
T1 construct: expressed in transfected cells; host or cells: Chinese hamster ovary cells (membranes)
Summary of the method: (§1)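 Test compounds compete with a single concentration of radioligand for receptor sites on tissue or membrane fractions under equilibrium incubation. Filtration separates displaced ligand, and nonspecific binding is set with a known receptor blocker.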

human M3 receptors = target: T2, human M3 receptors (Homo sapiens, UniProt P20309); assay: hM3 receptor radioligand binding ([3H]NMS); details: for Ki: pKi reported on a scale of 1 through 5, read-out: M3 (pKi) (converted); for affinity to M3 receptors: in words
T2 construct: expressed in transfected cells; host or cells: Chinese hamster ovary cells (membranes)
T2 sequence (P20309 whole entry): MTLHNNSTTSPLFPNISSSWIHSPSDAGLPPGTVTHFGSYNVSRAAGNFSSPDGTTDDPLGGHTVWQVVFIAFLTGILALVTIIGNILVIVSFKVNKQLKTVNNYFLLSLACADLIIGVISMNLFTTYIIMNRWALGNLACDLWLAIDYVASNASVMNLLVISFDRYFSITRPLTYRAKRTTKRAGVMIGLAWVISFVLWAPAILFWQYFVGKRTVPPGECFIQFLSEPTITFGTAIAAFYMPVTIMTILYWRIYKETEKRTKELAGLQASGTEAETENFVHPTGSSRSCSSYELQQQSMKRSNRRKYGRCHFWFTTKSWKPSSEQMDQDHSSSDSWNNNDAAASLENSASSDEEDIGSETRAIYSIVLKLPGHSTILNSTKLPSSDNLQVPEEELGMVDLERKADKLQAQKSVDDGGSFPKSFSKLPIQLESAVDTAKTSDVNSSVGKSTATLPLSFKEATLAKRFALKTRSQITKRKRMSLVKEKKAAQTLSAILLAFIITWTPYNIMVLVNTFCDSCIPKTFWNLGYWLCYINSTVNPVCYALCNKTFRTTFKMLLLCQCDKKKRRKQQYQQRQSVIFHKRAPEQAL
Summary of the method: as §1

human H1 receptors = target: T3, human H1 receptors (Homo sapiens, UniProt P35367); assay: hH1 receptor radioligand binding ([3H]Pyrilamine); details: for Ki: pKi reported on a scale of 1 through 5; for binding to H1: in words
T3 construct: expressed in transfected cells; host or cells: Chinese hamster ovary cells (membranes)
T3 sequence (P35367 whole entry): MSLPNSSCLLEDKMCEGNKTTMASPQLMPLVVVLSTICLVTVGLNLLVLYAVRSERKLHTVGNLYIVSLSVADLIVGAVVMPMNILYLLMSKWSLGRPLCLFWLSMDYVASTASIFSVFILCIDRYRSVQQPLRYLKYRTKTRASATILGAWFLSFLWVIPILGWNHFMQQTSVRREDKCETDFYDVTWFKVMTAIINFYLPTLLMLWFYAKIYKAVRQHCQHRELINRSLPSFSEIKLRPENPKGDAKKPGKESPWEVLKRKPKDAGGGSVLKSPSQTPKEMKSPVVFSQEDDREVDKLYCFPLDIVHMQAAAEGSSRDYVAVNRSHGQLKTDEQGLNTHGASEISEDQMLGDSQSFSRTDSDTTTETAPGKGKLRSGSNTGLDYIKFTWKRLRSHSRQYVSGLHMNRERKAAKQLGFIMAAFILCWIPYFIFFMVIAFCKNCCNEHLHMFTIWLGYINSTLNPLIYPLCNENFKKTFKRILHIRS
Summary of the method: as §1

human M1 receptors = target: T4, human M1 receptors (Homo sapiens, UniProt P11229); assay: hM1 receptor radioligand binding ([3H]NMS); details: for Ki: pKi reported on a scale of 1 through 5; for affinity to M1 receptors: in words
T4 construct: expressed in transfected cells; host or cells: Chinese hamster ovary cells (membranes)
T4 sequence (P11229 1-460): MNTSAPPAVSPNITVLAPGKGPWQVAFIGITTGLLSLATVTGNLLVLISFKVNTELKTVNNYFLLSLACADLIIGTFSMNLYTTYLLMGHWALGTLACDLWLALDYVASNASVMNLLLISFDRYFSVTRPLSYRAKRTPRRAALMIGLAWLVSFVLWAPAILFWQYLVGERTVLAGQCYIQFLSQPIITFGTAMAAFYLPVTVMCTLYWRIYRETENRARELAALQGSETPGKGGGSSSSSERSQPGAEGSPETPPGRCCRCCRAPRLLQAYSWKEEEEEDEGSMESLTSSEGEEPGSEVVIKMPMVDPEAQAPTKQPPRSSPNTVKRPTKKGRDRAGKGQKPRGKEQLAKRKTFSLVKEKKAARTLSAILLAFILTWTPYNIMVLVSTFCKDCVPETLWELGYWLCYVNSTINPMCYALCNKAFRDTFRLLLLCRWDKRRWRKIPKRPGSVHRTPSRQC
Summary of the method: as §1

5-HT2A receptor = target: T5, 5-HT2A receptor (Rattus norvegicus, UniProt P14842); assay: cell-based
T5 construct: Eight strips of tissue (0.5 cm long) were cut. and were mounted in 10 ml organ baths; tissue Charles River Laboratories; host or cells: rat aorta strips, endothelium removed
T5 sequence (P14842 whole entry): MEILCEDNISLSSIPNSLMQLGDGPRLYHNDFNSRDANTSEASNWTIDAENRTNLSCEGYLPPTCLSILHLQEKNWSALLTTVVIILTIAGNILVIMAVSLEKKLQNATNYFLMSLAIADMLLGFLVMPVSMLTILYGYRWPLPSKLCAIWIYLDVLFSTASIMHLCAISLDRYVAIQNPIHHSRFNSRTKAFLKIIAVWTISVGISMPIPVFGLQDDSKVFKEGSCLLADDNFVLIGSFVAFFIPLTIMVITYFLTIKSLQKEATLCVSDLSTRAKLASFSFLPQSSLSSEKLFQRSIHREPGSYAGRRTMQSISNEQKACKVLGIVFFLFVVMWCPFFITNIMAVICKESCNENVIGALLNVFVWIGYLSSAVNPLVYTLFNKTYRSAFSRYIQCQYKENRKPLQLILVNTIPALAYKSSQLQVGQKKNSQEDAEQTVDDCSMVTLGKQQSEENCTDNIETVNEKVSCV
Summary of the method: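 Endothelium-denuded aortic strips from male Sprague Dawley rats held at 37° C in carbogen-aerated Krebs, pH 7.4, under 2 g resting tension. Contraction recorded as tension change, expressed as % of maximal 5-HT response; agonist EC50 from Parker–Waud fit, antagonist pKB/pA2 from concentration-ratios.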

human 5HT2C receptors = target: T6, human 5HT2C receptors (Homo sapiens, UniProt P28335); assay: h5-HT2C receptor radioligand binding ([3H]Mesulergine); details: for Ki: pKi reported on a scale of 1 through 5; for binding to 5-HT2c: in words
T6 construct: expressed in transfected cells; host or cells: human embryo kidney cells (membranes)
T6 sequence (P28335 33-458): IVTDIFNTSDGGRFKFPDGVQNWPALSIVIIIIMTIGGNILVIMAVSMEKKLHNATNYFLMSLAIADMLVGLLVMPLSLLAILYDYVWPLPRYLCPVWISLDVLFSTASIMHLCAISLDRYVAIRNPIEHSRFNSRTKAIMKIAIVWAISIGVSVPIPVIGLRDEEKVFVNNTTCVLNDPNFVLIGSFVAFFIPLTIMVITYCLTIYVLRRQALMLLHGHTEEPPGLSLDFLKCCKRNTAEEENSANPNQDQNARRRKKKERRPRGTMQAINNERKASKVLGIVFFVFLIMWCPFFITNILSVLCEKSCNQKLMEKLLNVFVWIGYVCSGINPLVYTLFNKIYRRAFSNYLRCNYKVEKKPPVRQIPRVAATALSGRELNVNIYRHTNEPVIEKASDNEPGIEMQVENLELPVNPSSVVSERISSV
Summary of the method: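 Competition binding: membranes incubated to equilibrium with a single concentration of [3H]mesulergine and a range of unlabeled test compound concentrations, then filtered. Nonspecific binding defined with a known receptor blocker; displacement concentration-response, corrected for nonspecific binding, gave the affinity measure.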

human 5HT1A receptors = target: T7, human 5HT1A receptors (Homo sapiens, UniProt P08908); assay: h5-HT1A receptor radioligand binding ([3H]8OH-DPAT); details: for Ki: pKi reported on a scale of 1 through 5; for binding to 5-HT1A: in words
T7 construct: expressed in transfected cells; host or cells: Chinese hamster ovary cells (membranes)
T7 sequence (P08908 1-422): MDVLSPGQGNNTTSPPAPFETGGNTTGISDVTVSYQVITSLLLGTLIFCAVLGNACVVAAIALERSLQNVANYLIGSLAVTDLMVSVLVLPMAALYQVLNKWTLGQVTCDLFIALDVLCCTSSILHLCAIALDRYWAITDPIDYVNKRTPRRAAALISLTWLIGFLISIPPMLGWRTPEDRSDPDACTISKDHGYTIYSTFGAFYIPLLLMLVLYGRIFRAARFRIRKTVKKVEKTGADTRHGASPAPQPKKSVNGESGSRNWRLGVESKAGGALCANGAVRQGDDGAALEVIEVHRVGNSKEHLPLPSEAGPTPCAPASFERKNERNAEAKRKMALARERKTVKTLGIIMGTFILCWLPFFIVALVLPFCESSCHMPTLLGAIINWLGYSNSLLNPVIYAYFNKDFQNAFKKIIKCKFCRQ
Summary of the method: as §1

[2] = read-out: 5HT2A (pKb) (converted)

T1 sequence (P14416 1-414 isoform P14416-2): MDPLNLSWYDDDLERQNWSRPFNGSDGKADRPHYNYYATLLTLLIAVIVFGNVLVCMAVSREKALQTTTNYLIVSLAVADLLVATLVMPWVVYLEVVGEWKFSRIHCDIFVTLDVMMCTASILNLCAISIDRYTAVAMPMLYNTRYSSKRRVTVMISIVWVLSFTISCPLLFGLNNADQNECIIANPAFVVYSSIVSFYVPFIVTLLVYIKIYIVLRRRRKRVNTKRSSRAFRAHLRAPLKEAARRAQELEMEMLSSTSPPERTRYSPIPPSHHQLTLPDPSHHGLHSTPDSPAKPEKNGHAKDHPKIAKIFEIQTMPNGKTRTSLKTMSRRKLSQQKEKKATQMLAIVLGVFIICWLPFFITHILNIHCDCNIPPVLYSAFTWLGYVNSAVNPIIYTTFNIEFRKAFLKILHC

| Structure (SMILES) | Ki [1] | Ki (human M3 receptors) | Ki (human H1 receptors) | Ki (human M1 receptors) | Kb (5-HT2A receptor; [2]) | Ki (human 5HT2C receptors) | Ki (human 5HT1A receptors) | also measured |
| --- | --- | --- | --- | --- | --- | --- | --- | --- |
| CC(C)OC(=O)CC1CN(C2=Nc3cc(Cl)ccc3Oc3ccccc32)CCN1 (stereo not shown) [L, (E)-isopropyl 2-(4-(8-chlorodibenzo[b,f][1,4]oxazepin-11-yl)piperazin-2-yl)acetate] | 2510 to 9770 nM | > 10000 nM | 100 to 977 nM | > 10000 nM | 10 to 30.9 nM | 10 to 97.7 nM | 100 to 977 nM | – |
| CCOC(=O)CC1CN(C2=Nc3ccc(F)cc3Oc3ccccc32)CCN1 (stereo not shown) [J, (E)-ethyl 2-(4-(7-fluorodibenzo[b,f][1,4]oxazepin-11-yl)piperazin-2-yl)acetate] | 2510 to 9770 nM | > 10000 nM | 100 to 977 nM | > 10000 nM | 31.6 to 97.7 nM | 100 to 977 nM | 100 to 977 nM | – |
| O=C(O)C[C@H]1CN(C2=Nc3cc(Cl)ccc3Oc3ccccc32)CCN1 [Compound Q, (S,E)-2-(4-(8-chlorodibenzo[b,f][1,4]oxazepin-11-yl)piperazin-2-yl)acetic acid] | > 10000 nM | > 10000 nM | 100 to 977 nM | > 10000 nM | 10 to 30.9 nM | 100 to 977 nM | 100 to 977 nM | binds to D2S dopamine receptors ([1]; in words): not; affinity to M3 receptors (human M3 receptors): very low affinity; binding to H1 (human H1 receptors): bind; affinity to M1 receptors (human M1 receptors): very low affinity; affinity for the 5-HT2A receptors, fold lower than Compound K (5-HT2A receptor; relative to Compound K): 8 fold; binding to 5-HT2c (human 5HT2C receptors): bind; binding to 5-HT1A (human 5HT1A receptors): bind |
| O=C(C[C@H]1CN(C2=Nc3cc(Cl)ccc3Oc3ccccc32)CCN1)OC1CCOCC1 [DV, (S,E)-tetrahydro-2H-pyran-4-yl 2-(4-(8-chlorodibenzo[b,f][1,4]oxazepin-11-yl)piperazin-2-yl)acetate] | 631 to 2450 nM | > 10000 nM | 1000 to 9770 nM | > 10000 nM | 3.16 to 9.77 nM | 10 to 97.7 nM | 10 to 97.7 nM | – |
| O=C(C[C@H]1CN(C2=Nc3cc(Cl)ccc3Oc3ccccc32)CCN1)OC1CCCC1 [DR, (S,E)-cyclopentyl 2-(4-(8-chlorodibenzo[b,f][1,4]oxazepin-11-yl)piperazin-2-yl)acetate] | 631 to 2450 nM | > 10000 nM | 1000 to 9770 nM | 1260 to 2450 nM | 10 to 30.9 nM | 10 to 97.7 nM | 10 to 97.7 nM | – |
| CCC(C)OC(=O)C[C@H]1CN(C2=Nc3cc(Cl)ccc3Oc3ccccc32)CCN1C (stereo partly drawn) [DY, sec-butyl 2-((S)-4-((E)-8-chlorodibenzo[b,f][1,4]oxazepin-11-yl)-1-methylpiperazin-2-yl)acetate] | 2510 to 9770 nM | > 10000 nM | 10 to 97.7 nM | > 10000 nM | 10 to 30.9 nM | 100 to 977 nM | 1000 to 9770 nM | – |
| CCOC(=O)CC1CN(C2=Nc3cc(Cl)ccc3Oc3ccccc32)CCN1 (stereo not shown) [A, (E)-ethyl 2-(4-(8-chlorodibenzo[b,f][1,4]oxazepin-11-yl)piperazin-2-yl)acetate] | 2510 to 9770 nM | > 10000 nM | 100 to 977 nM | 5010 to 9770 nM | 10 to 30.9 nM | 10 to 97.7 nM | 100 to 977 nM | – |
| O=C(C[C@H]1CN(C2=Nc3cc(Cl)ccc3Oc3ccccc32)CCN1)O[C@H]1CCOC1 [EQ, (S)-tetrahydrofuran-3-yl 2-((S)-4-((E)-8-chlorodibenzo[b,f][1,4]oxazepin-11-yl)piperazin-2-yl)acetate] | 631 to 2450 nM | – | 10 to 97.7 nM | 5010 to 9770 nM | 3.16 to 9.77 nM | – | 10 to 97.7 nM | – |
| CC(C)OC(=O)CC1CN(C2=Nc3ccc(F)cc3Oc3ccccc32)CCN1 (stereo not shown) [M, (E)-isopropyl 2-(4-(7-fluorodibenzo[b,f][1,4]oxazepin-11-yl)piperazin-2-yl)acetate] | > 10000 nM | > 10000 nM | 1000 to 9770 nM | > 10000 nM | 10 to 30.9 nM | 100 to 977 nM | 100 to 977 nM | – |
| CCOC(=O)C[C@H]1CN(C2=Nc3cc(Cl)ccc3Oc3ccccc32)CCN1CCC(C)C [ER, (S,E)-ethyl 2-(4-(8-chlorodibenzo[b,f][1,4]oxazepin-11-yl)-1-isopentylpiperazin-2-yl)acetate] | 2510 to 9770 nM | – | 100 to 977 nM | > 10000 nM | 31.6 to 97.7 nM | – | 1000 to 9770 nM | – |
| CN1CCN(C2=Nc3cc(Cl)ccc3Oc3ccccc32)C[C@@H]1CC(=O)NCC(F)(F)C(F)(F)F [EU, (S,E)-2-(4-(8-chlorodibenzo[b,f][1,4]oxazepin-11-yl)-1-methylpiperazin-2-yl)-N-(2,2,3,3,3-pentafluoropropyl)acetamide] | 2510 to 9770 nM | – | 100 to 977 nM | > 10000 nM | – | – | 1000 to 9770 nM | Kb (5-HT2A receptor; pKb reported on a scale of 1 through 5, read-out: 5HT2A (pKb) (converted)): > 100 nM |
| CCOC(=O)C[C@H]1CN(C2=Nc3cc(Cl)ccc3Oc3ccccc32)CCN1 [Compound K, (S,E)-ethyl 2-(4-(8-chlorodibenzo[b,f][1,4]oxazepin-11-yl)piperazin-2-yl)acetate] | 631 to 2450 nM | > 10000 nM | 100 to 977 nM | > 10000 nM | 3.16 to 9.77 nM | 10 to 97.7 nM | 100 to 977 nM | IC50 binding affinity for D2S receptors ([1]; in words): low micromolar; binds to D2S dopamine receptors ([1]; in words): Binds; affinity for the D2S receptor compared with clozapine ([1]; relative to clozapine, in words): comparable; affinity to M3 receptors (human M3 receptors): very low affinity; binding to H1 (human H1 receptors): bind; affinity for the H1 receptors, fold lower than clozapine (human H1 receptors; relative to clozapine): 69 fold; affinity to M1 receptors (human M1 receptors): very low affinity; Kb (5-HT2A receptor; rat aorta, Schild plot vs 5-HT, read-out: pA2, antagonist for 5-HT2A receptors (converted)): 3.16 nM; binding to 5-HT2c (human 5HT2C receptors): bind; affinity for the 5-HT2c receptors, fold lower than clozapine (human 5HT2C receptors; relative to clozapine): 1.2 fold; binding to 5-HT1A (human 5HT1A receptors): bind; affinity for the 5-HT1A receptors, fold higher than clozapine (human 5HT1A receptors; relative to clozapine): 4 fold |
